From US20070128217A1 (priority 2003, published 2007)

Experiments:
[1] = test system: antibodies in sera from SARS patients (sera 1a, 1b, 2, 6, 37, 62, London, SARS-yellow, SARS-green); type: binding, human; parameters: Binding of serum 6 to linear peptides of protein X1 of SARS-CoV Urbani / Binding of serum 37 to linear peptides of protein X1 of SARS-CoV Urbani / Binding of serum 6 to looped/cyclic peptide (PEPSCAN-ELISA) / Binding of serum 37 to looped/cyclic peptide (PEPSCAN-ELISA) / Binding of serum 37 to looped/cyclic peptides of protein X1 of SARS-CoV Urbani / Binding of serum 6 to linear peptides of protein X2 / Binding of serum 37 to linear peptides of protein X2 / Binding of serum 37 to looped/cyclic peptides of protein X2 of SARS-CoV Urbani / Binding of serum 6 to linear peptides of protein M of SARS-CoV Urbani / Binding of serum 37 to linear peptides of protein M of SARS-CoV Urbani / Binding of serum 6 to looped/cyclic peptides of protein M of SARS-CoV Urbani / Binding of serum 37 to looped/cyclic peptides of protein M of SARS-CoV Urbani / Binding of serum 6 to linear peptides of protein X3 of SARS-CoV Urbani / Binding of serum 37 to linear peptides of protein X3 of SARS-CoV Urbani / Binding of serum 37 to looped/cyclic peptides of protein X3 of SARS-CoV Urbani / Binding of serum 6 to linear peptides of protein X4 of SARS-CoV Urbani / Binding of serum 37 to linear peptides of protein X4 of SARS-CoV Urbani / Binding of serum 37 to looped/cyclic peptides of protein X4 of SARS-CoV Urbani / Binding of serum 6 to linear peptides of protein X5 of SARS-CoV Urbani / Binding of serum 37 to linear peptides of protein X5 of SARS-CoV Urbani / Binding of serum 37 to looped/cyclic peptides of protein X5 of SARS-CoV Urbani / Binding of serum 6 to linear peptides of protein N of SARS-CoV Urbani / Binding of serum 37 to linear peptides of protein N of SARS-CoV Urbani / Binding of serum 6 to linear peptide (PEPSCAN-ELISA) / Binding of serum 1a to looped/cyclic peptides of protein N of SARS-CoV Urbani / Binding of serum 1b to looped/cyclic peptides of protein N of SARS-CoV Urbani / Binding of serum 2 to looped/cyclic peptides of protein N of SARS-CoV Urbani / Binding of serum 6 to looped/cyclic peptides of protein N of SARS-CoV Urbani / Binding of serum 37 to looped/cyclic peptides of protein N of SARS-CoV Urbani / Binding of serum 62 to looped/cyclic peptides of protein N of SARS-CoV Urbani / Binding of serum London to looped/cyclic peptides of protein N of SARS-CoV Urbani / Binding of serum SARS-green to looped/cyclic peptides of protein N of SARS-CoV Urbani: unit not given here
[2] = test system: control sera (pooled serum of ten healthy LUMC hospital workers; commercial negative donor pooled serum from the Dutch bloodbank); type: binding, human; parameters: Binding of Control serum LUMC to linear peptides / Binding of Control serum Blood-bank to linear peptides / Binding of Control serum LUMC to looped peptides / Binding of Control Serum Blood-Bank to Looped peptides / Binding of Control serum LUMC to linear peptides of the protein M of SARS-CoV Urbani / Binding of Control serum Blood-bank to linear peptides of the protein M of SARS-CoV Urbani / Binding of Control serum LUMC to looped peptides of the protein M of SARS-CoV Urbani / Binding of Control Serum Blood-Bank to Looped peptides of the protein M of SARS-CoV Urbani: unit not given here
[3] = test system: rabbit serum obtained by immunizing a rabbit with the SARS-CoV strain Frankfurt 1; type: binding; parameters: Binding of a rabbit serum to linear peptides / Binding of a rabbit serum to looped peptides / Rabbit serum linear peptides / Rabbit serum looped peptides / Binding of a rabbit serum to linear peptides of protein N of SARS-CoV Urbani (Rabbit serum linear peptides) / Binding of a rabbit serum to looped/cyclic peptides of protein N of SARS-CoV Urbani (Rabbit serum looped peptides): unit not given here

AYSNRNRFLYIIKLV
Binding of serum 1a to linear peptides of protein M of SARS-CoV Urbani [1]: 0.7
Binding of serum 1b to linear peptides of protein M of SARS-CoV Urbani [1]: 0.6
Binding of serum 2 to linear peptides of protein M of SARS-CoV Urbani [1]: 0.6
Binding of serum 6 to linear peptides of protein M of SARS-CoV Urbani [1]: 0.6
Binding of serum 37 to linear peptides of protein M of SARS-CoV Urbani [1]: 0.4
Binding of serum 62 to linear peptides of protein M of SARS-CoV Urbani [1]: 0.5
Binding of serum London to linear peptides of protein M of SARS-CoV Urbani [1]: 0.3
Binding of serum SARS-green to linear peptides of protein M of SARS-CoV Urbani [1]: 0.5
Binding of serum SARS-yellow to linear peptides of protein M of SARS-CoV Urbani [1]: 0.2
Recognition of the peptide by sera of SARS-CoV infected individuals, and form (linear, looped/cyclic) in which it is recognized [1]: recognized in looped/cyclic form
Binding of Control Serum Blood-Bank to Looped peptides of the protein M of SARS-CoV Urbani [2]: 0.6
Binding of Control serum Blood-bank to linear peptides of the protein M of SARS-CoV Urbani [2]: 0.7
Binding of Control serum LUMC to linear peptides of the protein M of SARS-CoV Urbani [2]: 0.7
Binding of Control serum LUMC to looped peptides of the protein M of SARS-CoV Urbani [2]: 0.8
Rabbit serum linear peptides [3]: 0.3
Rabbit serum looped peptides [3]: 0.5

YRINWVTGGIAIAMA
Binding of serum 1a to linear peptides of protein M of SARS-CoV Urbani [1]: 0.7
Binding of serum 1a to looped/cyclic peptides of protein M of SARS-CoV Urbani [1]: 0.6
Binding of serum 1b to linear peptides of protein M of SARS-CoV Urbani [1]: 0.6
Binding of serum 1b to looped/cyclic peptides of protein M of SARS-CoV Urbani [1]: 0.4
Binding of serum 2 to linear peptides of protein M of SARS-CoV Urbani [1]: 0.7
Binding of serum 2 to looped/cyclic peptides of protein M of SARS-CoV Urbani [1]: 0.6
Binding of serum 6 to linear peptides of protein M of SARS-CoV Urbani [1]: 0.3
Binding of serum 6 to looped/cyclic peptides of protein M of SARS-CoV Urbani [1]: 0.5
Binding of serum 37 to linear peptides of protein M of SARS-CoV Urbani [1]: 0.8
Binding of serum 37 to looped/cyclic peptides of protein M of SARS-CoV Urbani [1]: 0.5
Binding of serum 62 to linear peptides of protein M of SARS-CoV Urbani [1]: 0.8
Binding of serum 62 to looped/cyclic peptides of protein M of SARS-CoV Urbani [1]: 0.6
Binding of serum London to linear peptides of protein M of SARS-CoV Urbani [1]: 0.3
Binding of serum London to looped/cyclic peptides of protein M of SARS-CoV Urbani [1]: 0.2
Binding of serum SARS-green to linear peptides of protein M of SARS-CoV Urbani [1]: 0.3
Binding of serum SARS-green to looped/cyclic peptides of protein M of SARS-CoV Urbani [1]: 0.0
Binding of serum SARS-yellow to linear peptides of protein M of SARS-CoV Urbani [1]: 0.1
Binding of serum SARS-yellow to looped/cyclic peptides of protein M of SARS-CoV Urbani [1]: 0.8
Binding of Control Serum Blood-Bank to Looped peptides of the protein M of SARS-CoV Urbani [2]: 0.7
Binding of Control serum Blood-bank to linear peptides of the protein M of SARS-CoV Urbani [2]: 0.8
Binding of Control serum LUMC to linear peptides of the protein M of SARS-CoV Urbani [2]: 0.6
Binding of Control serum LUMC to looped peptides of the protein M of SARS-CoV Urbani [2]: 0.6
Rabbit serum linear peptides [3]: 0.4
Rabbit serum looped peptides [3]: 0.3

QFMMSRRRLLACLCK
Binding of serum 1a to linear peptides of protein X2 [1]: 0.7
Binding of serum 1a to looped/cyclic peptides of protein X2 of SARS-CoV Urbani [1]: 0.4
Binding of serum 1b to linear peptides of protein X2 [1]: 0.5
Binding of serum 1b to looped/cyclic peptides of protein X2 of SARS-CoV Urbani [1]: 0.5
Binding of serum 2 to linear peptides of protein X2 [1]: 0.5
Binding of serum 2 to looped/cyclic peptides of protein X2 of SARS-CoV Urbani [1]: 0.5
Binding of serum 6 to linear peptides of protein X2 [1]: 0.6
Binding of serum 6 to looped/cyclic peptides of protein X2 of SARS-CoV Urbani [1]: 0.1
Binding of serum 37 to linear peptides of protein X2 [1]: 0.5
Binding of serum 37 to looped/cyclic peptides of protein X2 of SARS-CoV Urbani [1]: 0.4
Binding of serum 62 to linear peptides of protein X2 [1]: 0.6
Binding of serum 62 to looped/cyclic peptides of protein X2 of SARS-CoV Urbani [1]: 0.5
Binding of serum London to linear peptides of protein X2 [1]: 0.6
Binding of serum London to looped/cyclic peptides of protein X2 of SARS-CoV Urbani [1]: 0.2
Binding of serum SARS-green to linear peptides of protein X2 [1]: 0.4
Binding of serum SARS-green to looped/cyclic peptides of protein X2 of SARS-CoV Urbani [1]: 0.4
Binding of serum SARS-yellow to linear peptides of protein X2 [1]: 0.4
Binding of serum SARS-yellow to looped/cyclic peptides of protein X2 of SARS-CoV Urbani [1]: 0.3
Binding of Control Serum Blood-Bank to Looped peptides [2]: 0.3
Binding of Control serum Blood-bank to linear peptides [2]: 0.7
Binding of Control serum LUMC to linear peptides [2]: 0.5
Binding of Control serum LUMC to looped peptides [2]: 0.4
Binding of a rabbit serum to linear peptides [3]: 0.5
Binding of a rabbit serum to looped peptides [3]: 1.9
